In ChEMBL document CHEMBL4715808, “Discovery of (1S,2R,3S,4S,5R,6R)-2-Amino-3-[(3,4-difluorophenyl)sulfanylmethyl]-4-hydroxy-bicyclo[3.1.0]hexane-2,6-dicarboxylic Acid Hydrochloride (LY3020371·HCl): A Potent, Metabotropic Glutamate 2/3 Receptor Antagonist with Antidepressant-Like Activity” (J Med Chem, 2016):
Values belong to the molecule of their own block, whether it stands above or below them.

Experiments:
[1] = biological target: T1, Metabotropic glutamate receptor 2 (Homo sapiens, UniProt Q14416)
T1 sequence (Q14416 whole entry): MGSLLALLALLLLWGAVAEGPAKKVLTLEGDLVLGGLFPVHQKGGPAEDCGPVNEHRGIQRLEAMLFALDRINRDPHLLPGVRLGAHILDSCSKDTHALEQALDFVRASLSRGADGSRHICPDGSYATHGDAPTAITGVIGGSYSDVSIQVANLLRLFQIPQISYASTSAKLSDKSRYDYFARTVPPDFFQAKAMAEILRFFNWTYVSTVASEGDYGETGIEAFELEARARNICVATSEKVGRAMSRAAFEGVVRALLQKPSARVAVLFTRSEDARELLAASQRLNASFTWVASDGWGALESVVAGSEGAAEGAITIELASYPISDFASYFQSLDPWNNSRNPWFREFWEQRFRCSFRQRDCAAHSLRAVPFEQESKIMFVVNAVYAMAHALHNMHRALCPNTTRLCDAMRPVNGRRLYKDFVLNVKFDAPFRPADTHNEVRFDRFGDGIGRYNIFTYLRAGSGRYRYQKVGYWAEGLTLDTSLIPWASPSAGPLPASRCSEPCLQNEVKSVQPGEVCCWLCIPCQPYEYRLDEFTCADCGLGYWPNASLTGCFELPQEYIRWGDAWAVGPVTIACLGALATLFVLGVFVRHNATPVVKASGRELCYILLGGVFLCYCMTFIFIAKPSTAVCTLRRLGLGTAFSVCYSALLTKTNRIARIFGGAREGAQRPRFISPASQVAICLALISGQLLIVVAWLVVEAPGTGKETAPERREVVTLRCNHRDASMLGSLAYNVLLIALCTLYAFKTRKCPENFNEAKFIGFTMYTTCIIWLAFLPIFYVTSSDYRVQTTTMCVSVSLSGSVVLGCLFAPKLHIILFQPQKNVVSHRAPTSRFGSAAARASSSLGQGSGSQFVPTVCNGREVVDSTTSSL
Description: Antagonist activity at human recombinant mGlu2 receptor stably expressed in golden hamster AV12 cells co-expressing rat EAAT1 assessed as reduction in DCG IV-induced inhibition of forskolin-stimulated cAMP accumulation preincubated for 20 mins followed by incubation with cAMP-d2 conjugate and anti-cAMP cryptate for 1 hr by HTRF assay

[2] = biological target: T1, Metabotropic glutamate receptor 2; remark: listed apart in the source
Description: Displacement of [3H]-LY459477 from recombinant human mGlu2 receptor expressed in hamster AV12 cell membranes co-expressing rat EAAT1 incubated for 90 mins by top count scintillation method

[3] = Antagonist activity at human recombinant mGlu7 stably expressed in golden hamster AV12 cell membrane co-expressing Galpha15 assessed as reduction in glutamate-induced calcium influx incubated for 90 to 120 min by Fluo-4-AM dye based FLIPR assay; assay type: cell membranes
[4] = biological target: T2, Metabotropic glutamate receptor 6 (Homo sapiens, UniProt O15303); assay: Agonist activity at human recombinant mGlu6 stably expressed in golden hamster AV12 cell membrane co-expressing Galpha15 assessed as assessed as increase in calcium influx incubated for 90 to 120 min by Fluo-4-AM dye based FLIPR assay; assay type: functional, cell membranes
T2 sequence (O15303 whole entry): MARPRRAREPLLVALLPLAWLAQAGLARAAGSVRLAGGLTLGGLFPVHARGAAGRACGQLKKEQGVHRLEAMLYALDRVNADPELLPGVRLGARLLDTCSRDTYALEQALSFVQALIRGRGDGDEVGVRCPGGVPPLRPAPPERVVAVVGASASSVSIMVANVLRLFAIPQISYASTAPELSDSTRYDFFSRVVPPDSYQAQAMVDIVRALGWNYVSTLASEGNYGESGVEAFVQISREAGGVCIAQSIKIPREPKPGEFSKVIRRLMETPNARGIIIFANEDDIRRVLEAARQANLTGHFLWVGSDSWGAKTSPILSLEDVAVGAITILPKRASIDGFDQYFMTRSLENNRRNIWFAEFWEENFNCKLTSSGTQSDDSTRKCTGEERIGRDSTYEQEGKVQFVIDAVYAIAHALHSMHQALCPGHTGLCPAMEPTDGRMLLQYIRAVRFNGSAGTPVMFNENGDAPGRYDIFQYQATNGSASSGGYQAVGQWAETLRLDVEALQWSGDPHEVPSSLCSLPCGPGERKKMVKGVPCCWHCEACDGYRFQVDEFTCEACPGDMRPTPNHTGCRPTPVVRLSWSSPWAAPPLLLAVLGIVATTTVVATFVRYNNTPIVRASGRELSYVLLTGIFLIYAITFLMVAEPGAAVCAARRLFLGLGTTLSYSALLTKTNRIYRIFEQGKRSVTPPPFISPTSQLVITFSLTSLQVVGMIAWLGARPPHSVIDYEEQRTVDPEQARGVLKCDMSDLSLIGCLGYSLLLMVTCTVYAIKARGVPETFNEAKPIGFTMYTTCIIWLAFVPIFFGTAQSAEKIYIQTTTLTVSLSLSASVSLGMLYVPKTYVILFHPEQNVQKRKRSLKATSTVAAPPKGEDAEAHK

[5] = Agonist activity at human recombinant mGlu7 stably expressed in golden hamster AV12 cell membrane co-expressing Galpha15 assessed as assessed as increase in calcium influx incubated for 90 to 120 min by Fluo-4-AM dye based FLIPR assay; assay type: cell membranes
[6] = biological target: T3, Metabotropic glutamate receptor 3 (Homo sapiens, UniProt Q14832); assay: Displacement of [3H]-LY459477 from recombinant human mGlu3 receptor expressed in hamster AV12 cell membranes co-expressing rat EAAT1 incubated for 90 mins by top count scintillation method; set-up: species or system Cell membrane
T3 sequence (Q14832 whole entry): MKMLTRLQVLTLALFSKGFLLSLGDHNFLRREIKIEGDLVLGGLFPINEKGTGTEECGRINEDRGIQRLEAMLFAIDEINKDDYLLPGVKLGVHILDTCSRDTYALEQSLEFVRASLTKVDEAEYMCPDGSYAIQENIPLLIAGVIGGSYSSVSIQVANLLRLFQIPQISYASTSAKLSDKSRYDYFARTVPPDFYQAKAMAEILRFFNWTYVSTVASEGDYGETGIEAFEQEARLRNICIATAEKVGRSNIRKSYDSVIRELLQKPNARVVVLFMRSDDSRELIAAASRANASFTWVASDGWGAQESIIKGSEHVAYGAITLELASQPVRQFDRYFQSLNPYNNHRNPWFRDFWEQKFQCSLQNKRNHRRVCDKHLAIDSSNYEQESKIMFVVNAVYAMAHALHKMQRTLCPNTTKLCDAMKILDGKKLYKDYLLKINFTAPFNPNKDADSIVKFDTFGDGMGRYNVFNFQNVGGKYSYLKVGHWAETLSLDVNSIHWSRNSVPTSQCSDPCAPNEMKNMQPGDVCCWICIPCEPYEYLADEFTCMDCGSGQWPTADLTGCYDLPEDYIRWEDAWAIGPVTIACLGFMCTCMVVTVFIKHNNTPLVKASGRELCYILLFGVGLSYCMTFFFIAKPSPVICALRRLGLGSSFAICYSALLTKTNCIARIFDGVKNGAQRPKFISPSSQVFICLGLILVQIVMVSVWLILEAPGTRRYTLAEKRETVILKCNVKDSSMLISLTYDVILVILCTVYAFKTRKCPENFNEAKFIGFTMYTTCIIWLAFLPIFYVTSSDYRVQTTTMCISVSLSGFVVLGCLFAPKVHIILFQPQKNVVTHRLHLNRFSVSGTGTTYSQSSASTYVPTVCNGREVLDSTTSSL

[7] = biological target: T3, Metabotropic glutamate receptor 3; assay: Antagonist activity at human recombinant mGlu3 stably expressed in golden hamster AV12 cell membrane co-expressing Galpha15 assessed as assessed as reduction in glutamate-induced calcium influx incubated for 90 to 120 min by Fluo-4-AM dye based FLIPR assay; assay type: functional, cell membranes
[8] = biological target: T4, Metabotropic glutamate receptor 1 (Homo sapiens, UniProt Q13255); assay: Agonist activity at human recombinant mGlu1 stably expressed in golden hamster AV12 cell membrane co-expressing Gq assessed as assessed as increase in calcium influx incubated for 90 to 120 min by Fluo-4-AM dye based FLIPR assay; assay type: functional, cell membranes
T4 sequence (Q13255 whole entry): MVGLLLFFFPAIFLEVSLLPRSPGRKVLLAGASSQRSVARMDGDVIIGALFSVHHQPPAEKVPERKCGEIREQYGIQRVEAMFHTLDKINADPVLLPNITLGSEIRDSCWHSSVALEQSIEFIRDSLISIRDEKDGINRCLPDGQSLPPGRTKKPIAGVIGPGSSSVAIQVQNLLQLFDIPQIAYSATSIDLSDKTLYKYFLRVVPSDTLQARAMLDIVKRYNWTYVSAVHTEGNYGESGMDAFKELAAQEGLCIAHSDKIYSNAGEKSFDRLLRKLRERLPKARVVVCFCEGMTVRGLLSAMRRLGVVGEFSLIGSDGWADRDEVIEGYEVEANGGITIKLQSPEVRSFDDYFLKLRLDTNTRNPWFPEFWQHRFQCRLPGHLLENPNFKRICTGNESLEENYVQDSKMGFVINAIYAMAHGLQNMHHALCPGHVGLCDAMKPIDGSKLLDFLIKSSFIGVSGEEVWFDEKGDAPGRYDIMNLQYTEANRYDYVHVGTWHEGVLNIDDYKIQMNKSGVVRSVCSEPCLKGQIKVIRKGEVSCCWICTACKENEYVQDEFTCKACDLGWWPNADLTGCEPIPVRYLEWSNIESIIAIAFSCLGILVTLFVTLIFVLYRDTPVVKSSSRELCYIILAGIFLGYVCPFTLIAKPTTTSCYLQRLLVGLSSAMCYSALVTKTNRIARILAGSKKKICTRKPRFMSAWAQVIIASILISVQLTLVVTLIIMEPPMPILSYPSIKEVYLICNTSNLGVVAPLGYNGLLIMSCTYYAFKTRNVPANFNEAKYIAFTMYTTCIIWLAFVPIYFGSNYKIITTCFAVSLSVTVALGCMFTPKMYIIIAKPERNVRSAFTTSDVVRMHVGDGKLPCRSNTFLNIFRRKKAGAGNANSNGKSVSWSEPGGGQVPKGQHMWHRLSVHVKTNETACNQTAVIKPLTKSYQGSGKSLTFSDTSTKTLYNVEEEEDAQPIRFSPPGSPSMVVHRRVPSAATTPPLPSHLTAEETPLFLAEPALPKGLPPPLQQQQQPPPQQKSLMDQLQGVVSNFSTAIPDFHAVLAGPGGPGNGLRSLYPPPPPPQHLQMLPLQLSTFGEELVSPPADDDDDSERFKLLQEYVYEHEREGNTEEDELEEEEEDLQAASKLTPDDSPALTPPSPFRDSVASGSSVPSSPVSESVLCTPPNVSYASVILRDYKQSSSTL

[9] = biological target: T4, Metabotropic glutamate receptor 1; assay: Antagonist activity at human recombinant mGlu1 stably expressed in golden hamster AV12 cell membrane co-expressing Gq assessed as reduction in glutamate-induced calcium influx incubated for 90 to 120 min by Fluo-4-AM dye based FLIPR assay; assay type: functional, cell membranes
[10] = biological target: T5, Metabotropic glutamate receptor 4 (Homo sapiens, UniProt Q14833); assay: Agonist activity at human recombinant mGlu4 stably expressed in golden hamster AV12 cell membrane co-expressing Galpha15 assessed as assessed as increase in calcium influx incubated for 90 to 120 min by Fluo-4-AM dye based FLIPR assay; assay type: functional, cell membranes
[11] = biological target: T5, Metabotropic glutamate receptor 4; assay: Antagonist activity human recombinant mGlu4 stably expressed in golden hamster AV12 cell membrane co-expressing Galpha15 assessed as reduction in glutamate-induced calcium influx incubated for 90 to 120 min by Fluo-4-AM dye based FLIPR assay; assay type: functional, cell membranes
[12] = biological target: T2, Metabotropic glutamate receptor 6; assay: Antagonist activity at human recombinant mGlu6 stably expressed in golden hamster AV12 cell membrane co-expressing Galpha15 assessed as reduction in glutamate-induced calcium influx incubated for 90 to 120 min by Fluo-4-AM dye based FLIPR assay; assay type: functional, cell membranes
[13] = biological target: T6, Metabotropic glutamate receptor 5 (Homo sapiens, UniProt P41594); assay: Agonist activity at human recombinant mGlu5 stably expressed in golden hamster AV12 cell membrane co-expressing Gq assessed as assessed as increase in calcium influx incubated for 90 to 120 min by Fluo-4-AM dye based FLIPR assay; assay type: functional, cell membranes
T6 sequence (P41594 whole entry): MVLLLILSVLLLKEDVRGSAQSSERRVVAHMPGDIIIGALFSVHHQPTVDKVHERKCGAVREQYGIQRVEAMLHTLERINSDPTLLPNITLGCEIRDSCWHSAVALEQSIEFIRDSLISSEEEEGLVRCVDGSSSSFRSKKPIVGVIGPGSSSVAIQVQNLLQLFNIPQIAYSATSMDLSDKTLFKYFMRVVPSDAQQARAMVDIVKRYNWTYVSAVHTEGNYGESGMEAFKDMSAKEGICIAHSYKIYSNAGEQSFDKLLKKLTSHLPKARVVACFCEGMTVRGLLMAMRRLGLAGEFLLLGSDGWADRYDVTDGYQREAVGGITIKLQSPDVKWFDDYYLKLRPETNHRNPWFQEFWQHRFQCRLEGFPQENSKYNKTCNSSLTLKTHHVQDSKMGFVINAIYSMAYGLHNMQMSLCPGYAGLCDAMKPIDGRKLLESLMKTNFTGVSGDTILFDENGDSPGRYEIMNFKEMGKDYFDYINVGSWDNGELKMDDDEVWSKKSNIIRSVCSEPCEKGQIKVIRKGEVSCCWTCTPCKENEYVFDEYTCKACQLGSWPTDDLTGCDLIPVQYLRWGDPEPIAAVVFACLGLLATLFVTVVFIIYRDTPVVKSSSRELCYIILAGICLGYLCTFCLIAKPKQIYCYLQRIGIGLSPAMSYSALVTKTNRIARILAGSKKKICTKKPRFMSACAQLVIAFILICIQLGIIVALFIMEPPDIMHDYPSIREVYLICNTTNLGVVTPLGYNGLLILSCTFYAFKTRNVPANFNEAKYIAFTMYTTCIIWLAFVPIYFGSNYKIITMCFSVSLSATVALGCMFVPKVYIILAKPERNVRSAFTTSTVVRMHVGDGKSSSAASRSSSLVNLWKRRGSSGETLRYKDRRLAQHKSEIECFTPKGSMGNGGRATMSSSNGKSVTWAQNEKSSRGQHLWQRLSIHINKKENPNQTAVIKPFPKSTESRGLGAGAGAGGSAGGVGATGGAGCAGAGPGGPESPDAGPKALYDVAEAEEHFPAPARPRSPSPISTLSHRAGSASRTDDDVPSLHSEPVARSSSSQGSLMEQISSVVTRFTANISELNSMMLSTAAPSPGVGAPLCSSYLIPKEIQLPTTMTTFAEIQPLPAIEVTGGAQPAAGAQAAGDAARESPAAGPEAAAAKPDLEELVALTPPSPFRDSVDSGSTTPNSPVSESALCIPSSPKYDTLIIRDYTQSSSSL

[14] = biological target: T6, Metabotropic glutamate receptor 5; assay: Antagonist activity at human recombinant mGlu5 stably expressed in golden hamster AV12 cell membrane co-expressing Gq assessed as reduction in glutamate-induced calcium influx incubated for 90 to 120 min by Fluo-4-AM dye based FLIPR assay; assay type: functional, cell membranes
[15] = Aqueous solubility of compound at pH 7.4; assay type: physicochemical; conditions: aqueous medium
[16] = Metabolic stability of compound in mouse hepatocytes assessed as parent compound loss at 2 uM; assay type: ADME, cell-based, Hepatocyte; conditions: read-out: Drug degradation
[17] = Metabolic stability of compound in rat hepatocytes assessed as parent compound loss at 2 uM; assay type: ADME, cell-based, Hepatocyte; conditions: read-out: Drug degradation
[18] = Metabolic stability of compound in dog hepatocytes assessed as parent compound loss at 2 uM; assay type: ADME, cell-based, Canis lupus familiaris, Hepatocyte; conditions: read-out: Drug degradation
[19] = Metabolic stability of compound in human hepatocytes assessed as parent compound loss at 2 uM; assay type: ADME, cell-based, Hepatocyte; conditions: read-out: Drug degradation
[20] = biological target: CYP3A4 (Homo sapiens, UniProt P08684); assay: Inhibition of human CYP3A4 at 10 uM relative to control; assay type: ADME
[21] = biological target: CYP2D6 (Homo sapiens, UniProt P10635); assay: Inhibition of human CYP2D6 at 10 uM relative to control; assay type: ADME
[22] = biological target: CYP2C9 (Homo sapiens, UniProt P11712); assay: Inhibition of human CYP2C9 at 10 uM relative to control; assay type: ADME
[23] = Protein binding in rat plasma assessed as unbound fraction; assay type: ADME, cell-free
[24] = Protein binding in human plasma assessed as unbound fraction; assay type: ADME, cell-free
[25] = AUC (0 to 24 hrs) in CD1 mouse plasma in fasting state at 1.1 mg/kg, ip administered as single dose measured after 24 hrs by LC-MS/MS analysis; assay type: ADME, organism-based; set-up: route intraperitoneal, dose 1.1 mg/kg, time 24 hrs
[26] = AUC (0 to 24 hrs) in CD1 mouse plasma in fasting state at 3.3 mg/kg, ip administered as single dose measured after 24 hrs by LC-MS/MS analysis; assay type: ADME, organism-based; set-up: route intraperitoneal, time 24 hrs, dose 3.3 mg/kg
[27] = AUC (0 to 24 hrs) in CD1 mouse plasma in fasting state at 11 mg/kg, ip administered as single dose measured after 24 hrs by LC-MS/MS analysis; assay type: ADME, organism-based; set-up: route intraperitoneal, dose 11 mg/kg, time 24 hrs
[28] = Cmax in CD1 mouse plasma in fasting state at 1.1 mg/kg, ip administered as single dose measured after 24 hrs by LC-MS/MS analysis; assay type: ADME, organism-based; set-up: route intraperitoneal, dose 1.1 mg/kg, time 24 hrs
[29] = Cmax in CD1 mouse plasma in fasting state at 3.3 mg/kg, ip administered as single dose measured after 24 hrs by LC-MS/MS analysis; assay type: ADME, organism-based; set-up: route intraperitoneal, dose 3.3 mg/kg, time 24 hrs
[30] = Cmax in CD1 mouse plasma in fasting state at 11 mg/kg, ip administered as single dose measured after 24 hrs by LC-MS/MS analysis; assay type: ADME, organism-based; set-up: route intraperitoneal, dose 11 mg/kg, time 24 hrs
[31] = Tmax in CD1 mouse plasma in fasting state at 1.1 mg/kg, ip administered as single dose measured after 24 hrs by LC-MS/MS analysis; assay type: ADME, organism-based
[32] = Tmax in CD1 mouse plasma in fasting state at 3.3 mg/kg, ip administered as single dose measured after 24 hrs by LC-MS/MS analysis; assay type: ADME, organism-based
[33] = Tmax in CD1 mouse plasma in fasting state at 11 mg/kg, ip administered as single dose measured after 24 hrs by LC-MS/MS analysis; assay type: ADME, organism-based
[34] = Half life in CD1 mouse plasma in fasting state at 1.1 mg/kg, ip administered as single dose measured after 24 hrs by LC-MS/MS analysis; assay type: ADME, organism-based
[35] = Half life in CD1 mouse plasma in fasting state at 3.3 mg/kg, ip administered as single dose measured after 24 hrs by LC-MS/MS analysis; assay type: ADME, organism-based
[36] = Half life in CD1 mouse plasma in fasting state at 11 mg/kg, ip administered as single dose measured after 24 hrs by LC-MS/MS analysis; assay type: ADME, organism-based
[37] = Dose normalized AUC in CD1 mouse plasma in fasting state at 1.1 mg/kg, ip administered as single dose measured after 24 hrs by LC-MS/MS analysis; assay type: ADME, organism-based; conditions: in vivo
[38] = Dose normalized AUC in CD1 mouse plasma in fasting state at 3.3 mg/kg, ip administered as single dose measured after 24 hrs by LC-MS/MS analysis; assay type: ADME, organism-based; conditions: in vivo
[39] = Dose normalized AUC in CD1 mouse plasma in fasting state at 11 mg/kg, ip administered as single dose measured after 24 hrs by LC-MS/MS analysis; assay type: ADME, organism-based; conditions: in vivo
[40] = Clearance in male Sprague-Dawley rat at 0.3 to 10 mg/kg, iv; assay type: ADME, organism-based; conditions: in vivo, dose 0.3-10 mg/kg
[41] = Unbound brain concentration in CD1 mouse at 1 mg/kg, ip administered as single dose by LC-MS/MS analysis; assay type: ADME, organism-based; conditions: in vivo
[42] = Unbound brain concentration in CD1 mouse at 3 mg/kg, ip administered as single dose by LC-MS/MS analysis; assay type: ADME, organism-based; conditions: in vivo
[43] = Unbound brain concentration in CD1 mouse at 10 mg/kg, ip administered as single dose by LC-MS/MS analysis; assay type: ADME, organism-based; conditions: in vivo
[44] = Unbound plasma concentration in CD1 mouse at 1 mg/kg, ip administered as single dose by LC-MS/MS analysis; assay type: ADME, organism-based; conditions: in vivo
[45] = Unbound plasma concentration in CD1 mouse at 3 mg/kg, ip administered as single dose by LC-MS/MS analysis; assay type: ADME, organism-based; conditions: in vivo
[46] = Unbound plasma concentration in CD1 mouse at 10 mg/kg, ip administered as single dose by LC-MS/MS analysis; assay type: ADME, organism-based; conditions: in vivo
[47] = tested on: Mus musculus; assay: Antidepressant activity in male Swiss mouse assessed as reduction in immobility time at 1 to 10 mg/kg, ip measured for last 4 mins of 6 mins test by forced swim test relative to control; assay type: functional; conditions: dose 1-10 mg/kg, 0.1 h
[48] = tested on: Mus musculus; assay: Antidepressant activity in ip dosed male Swiss mouse assessed as reduction in immobility time measured for last 4 mins of 6 mins test by forced swim test; assay type: functional; conditions: 0.1 h
[49] = biological target: T3, Metabotropic glutamate receptor 3; assay: Antagonist activity at human recombinant mGlu3 receptor stably expressed in golden hamster AV12 cells co-expressing rat EAAT1 assessed as reduction in DCG IV-induced inhibition of forskolin-stimulated cAMP accumulation preincubated for 20 mins followed by incubation with cAMP-d2 conjugate and anti-cAMP cryptate for 1 hr by HTRF assay; assay type: functional, cell-based

SMILES: CC(C)SC[C@@H]1[C@@H](O)[C@H]2[C@H](C(=O)O)[C@H]2[C@]1(N)C(=O)O
IC50 [1]: 2280 nM
Ki [2]: 1200 nM

SMILES: Cl.N[C@]1(C(=O)O)[C@@H]2[C@@H](C(=O)O)[C@@H]2[C@H](O)[C@H]1CSc1ccc(F)c(F)c1
IC50 [3]: 1260 nM
EC50 [4]: > 25000 nM
EC50 [5]: > 16700 nM
Ki [6]: 2.5 nM
IC50 [7]: 2.5 nM
EC50 [8]: > 25000 nM
IC50 [9]: > 12500 nM
EC50 [10]: > 25000 nM
IC50 [11]: > 12500 nM
IC50 [12]: 4010 nM
EC50 [13]: > 25000 nM
IC50 [14]: > 12500 nM
solubility [15]: > 100 µM
metabolised at 2 µM [16]: < 15%
metabolised at 2 µM [17]: < 15%
metabolised at 2 µM [18]: < 15%
metabolised at 2 µM [19]: < 15%
inhibition at 10 µM [20]: < 10%
inhibition at 10 µM [21]: < 10%
inhibition at 10 µM [22]: < 10%
fraction unbound [23]: > 0.6
fraction unbound [24]: > 0.6
AUC(0-t) at 24 h [25]: 5.03 µM·h
AUC(0-t) at 24 h [26]: 15.2 µM·h
AUC(0-t) at 24 h [27]: 45.5 µM·h
Cmax [28]: 4.17 µM
Cmax [29]: 20.6 µM
Cmax [30]: 38.4 µM
Tmax [31]: 15 min
Tmax [32]: 15 min
Tmax [33]: 15 min
half-life [34]: 42 min
half-life [35]: 30 min
half-life [36]: 64.2 min
AUC/dose [37]: 4571 nM·h/mg/kg
AUC/dose [38]: 4601 nM·h/mg/kg
AUC/dose [39]: 4134 nM·h/mg/kg
clearance [40]: 5.83 mL/min/kg
Drug uptake(free) [41]: 8.1 nM
Drug uptake(free) [42]: 47.3 nM
Drug uptake(free) [43]: 151.9 nM
Cp(f) [44]: 0.84 µM
Cp(f) [45]: 3.956 µM
Cp(f) [46]: 7.731 µM
%max [47]: 67.4%
ED60 [48]: 4.9 mg/kg

Other lines, results leading:

IC50 [49]: 967 nM
Ki [6]: 369 nM
IC50 [1]: 1440 nM
Ki [2]: 728 nM
SMILES: N[C@]1(C(=O)O)[C@@H]2[C@@H](C(=O)O)[C@@H]2[C@H](O)[C@H]1CSc1ccccc1F

IC50 [49]: 163 nM
Ki [6]: 36.1 nM
IC50 [1]: 45.4 nM
Ki [2]: 24 nM
SMILES: Cc1cc(SC[C@@H]2[C@@H](N)[C@H]3[C@H](C(=O)O)[C@H]3[C@]2(N)C(=O)O)ccc1F

IC50 [1]: 27.6 nM
Ki [2]: 14.2 nM
SMILES: Cc1ccc(SC[C@@H]2[C@@H](O)[C@H]3[C@H](C(=O)O)[C@H]3[C@]2(N)C(=O)O)cc1C
